Results taken from publication PMC9221442, “Design, Synthesis and Characterization of [G10a]-Temporin SHa Dendrimers as Dual Inhibitors of Cancer and Pathogenic Microbes” (Biomolecules, 2022).
Like-named read-outs stand apart in the source and are kept apart here. Where a SMILES comes first, the peptide text is derived from it. Bridges are numbered along the chain shown (N, C = ends). Roman numbers before positions name the chains, in order. Where no end group is shown, it is not given here. [ ]: non-standard residue; d: D form.

Key:
[1] = system: skin cancer cells MNT-1; format: cell-based, human; conditions: 48 h
Description: (§1) The antiproliferative effect of the peptides was determined by using human cells, as previously described. Human cancer cells used in this experiment were ovarian cancer cells A2780 (obtained from ECACC), breast cancer cells MCF-7 (obtained from ATCC), liver cancer cells HepG2 (obtained from ATCC), lung cancer cells A549 (obtained from ATCC), pancreatic cancer cells MiaPaCa (obtained from ATCC), prostate cancer cells PC-3 (obtained from ATCC), and skin cancer cells MNT-1 (generous gift from the National Institute of Health (NIH). Normal human cells used were human lung fibroblasts IMR-90 (obtained from ATCC). All cells were cultured in DMEM which was supplemented with 10% fetal bovine serum (FBS), 1% L-glutamine, and 1% antibiotics (all from Invitrogen) at 37 °C in 5% CO2 incubator. For cytotoxicity assay, cells were maintained in 25 cm^2 flasks. Cells were separated from flasks using trypsin-EDTA solution (from Thermofisher) and counted using Malassez chamber and diluted in culture medium before seeding into 96-well cell-culture plates (Greiner bio-one, Paris, France) at approximately 3000 cells/well. Cells were then treated with increasing concentration of peptides diluted in culture medium (1:2 serial dilution, from 100 µM to 0 µM). After 48 h, medium was aspirated and number of viable cells was colorimetrically determined using resazurin-based assay following manufacturer’s instructions. The fluorescence intensity was measured using microplate reader (Biotek, Santa Clara, CA, USA, Synergy Mx) with an excitation wavelength of 530 nm and an emission wavelength of 590 nm. The fluorescence values were normalized by the controls (untreated cells) and expressed as percent of proliferation. The IC50 values of peptides (i.e., the concentrations causing 50% inhibition of cell proliferation) were determined using GraphPad® Prism 7 software.

[2] = system: lung cancer cells A549; format: cell-based, human; conditions: 48 h
Description: as §1

[3] = system: ovarian cancer cells A2780; format: cell-based, human; conditions: 48 h
Description: as §1

[4] = system: liver cancer cells HepG2; format: cell-based, human; conditions: 48 h
Description: as §1

[5] = system: prostate cancer cells PC-3; format: cell-based, human; conditions: 48 h
Description: as §1

[6] = system: pancreatic cancer cells MiaPaCa; format: cell-based, human; conditions: 48 h
Description: as §1

[7] = system: breast cancer cells MCF-7; format: cell-based, human; conditions: 48 h
Description: as §1

[8] = system: human red blood cells; assay: Hemolysis assay; format: cell-based; conditions: for hemolysis: 100 µM; for estimated HC50 (concentration causing 50% of hemolysis): 1 h
Description: (§2) The ability of dendrimers and peptides to cause hemolysis was evaluated using human whole red blood cells. Briefly, fresh human erythrocytes (obtained from Divbio Science Europe, NL) were washed 3 times by centrifugation at 800× g for 5 min with sterile phosphate buffer saline (PBS, pH 7.4). The washed erythrocytes were resuspended in complete culture media (DMEM supplemented with 10% FBS) to a final concentration of 8%. Human erythrocytes were then added into sterile 96-well microplates (150 µL per well) and were exposed to increasing concentrations of peptides or dendrimers. After 1 h incubation at 37 °C, plates were centrifuged at 800× g for 5 min. Then, 100 µL of supernatant were carefully transferred to a new 96-well microplate and absorbance was measured at 450 nm using microplate reader. Triton-X100 at 0.1% (v/v) was used as positive control giving 100% hemolysis. The HC50 values of peptides and dendrimers (i.e., the concentration of compound causing 50% of hemolysis) were calculated using GraphPad® Prism 7 software.

[9] = Stability study at different temperatures (absorbance spectrum); conditions: room temperature, 35 °C, 40 °C, 50 °C and 60 °C
Description: (§3) The stability of dendrimers at different pH values and temperatures was also determined. For this, a 510 model digital pH meter (Oakton Eutech) with working electrode of glass material and a Ag/AgCl as reference electrode was used for the pH record. Dilute solutions of HCl and NaOH were added to adjust the pH of the solution from 2 to 12. Similarly, stability of monomer [G10a]-SHa and its three dendrimers was checked by heating the peptide dendrimers on different temperature ranges, i.e., room temperature, 35 °C, 40 °C, 50 °C and 60 °C.

[10] = Stability study at different pH; conditions: pH 2 to pH 14
Description: as §3, with “Dilute solutions of HCl and NaOH were added to adjust the pH of the solution from 2 to 12.” left out

[11] = system: human cancer cells; format: cell-based
Description: as §1

[12] = system: human lung fibroblasts IMR-90; format: cell-based; conditions: 48 h
Description: as §1

[13] = system: Helicobacter pylori (ATCC 43504); format: cell-based; conditions: H. pylori (ATCC 43504), 18–24 h, micro-aerobic
Description: (§4) Experiments were performed in triplicate (n = 3).

[14] = system: Acinetobacter baumannii (DSM 30007); format: cell-based; conditions: A. baumannii (DSM 30007), 18–24 h, aerobic
Description: as §4

[15] = system: Escherichia coli (ATCC 8739); format: cell-based; conditions: E. coli (ATCC 8739), 18–24 h, aerobic
Description: as §4

[16] = system: Staphylococcus aureus (ATCC 6538); format: cell-based; conditions: S. aureus (ATCC 6538), 18–24 h, aerobic
Description: as §4

[17] = Dynamic light scattering (zetasizer); format: physicochemical
Description: The dendrimeric solutions of peptides were transferred into transparent cuvette with care to remove bubble formation. The sample was then transferred to the cell holder and study was performed at 90° scattering angle at room temperature. The standard viscosity and refractive index were kept constant and kept at 1.0, 1.33 and 80.4 mPa, respectively.

[18] = system: Pseudomonas aeruginosa (ATCC 9027); format: cell-based; conditions: P. aeruginosa (ATCC 9027), 18–24 h, aerobic
Description: as §4

[19] = system: Enterococcus faecalis (DSM 2570); format: cell-based; conditions: E. faecalis (DSM 2570), 18–24 h, micro-aerobic
Description: as §4

[20] = system: Bacillus subtilis (ATCC 6633); format: cell-based; conditions: B. subtilis (ATCC 6633), 18–24 h, aerobic
Description: as §4

[21] = system: Klebsiella pneumoniae (DSM 26371); format: cell-based; conditions: K. pneumoniae (DSM 26371), 18–24 h
Description: as §4

[22] = system: Enterobacter cloacae (DSM 30054); format: cell-based; conditions: E. cloacae (DSM 30054), 18–24 h, aerobic
Description: as §4

[23] = system: Enterococcus faecium (DSM 20477); format: cell-based; conditions: E. faecium (DSM 20477), 18–24 h, micro-aerobic
Description: as §4

[24] = Hemolysis assay; format: cell-based, human; conditions: human; at 100 µM, 1 h, 37 °C, relative to Triton X-100 0.1%
Description: as §2

Compound	IC50 [1] [µM]	IC50 [2] [µM]	IC50 [3] [µM]	IC50 [4] [µM]	IC50 [5] [µM]	IC50 [6] [µM]	IC50 [7] [µM]	hemolytic activity (in words) [8]	hemolysis [8]	estimated HC50 (concentration causing 50% of hemolysis) ([8]; red cells of human) [µM]	stability at different temperatures [9]	stability at different pH [10]	IC50 ([11]; 48 h) [µM]	IC50 [12] [µM]	minimal inhibitory concentration (MIC) [13] [µM]	minimal inhibitory concentration (MIC) [14] [µM]	minimal inhibitory concentration (MIC) [15] [µM]	minimal inhibitory concentration (MIC) [16] [µM]	also measured
CC[C@H](C)[C@H](NC(=O)CNC(=O)[C@H](CO)NC(=O)[C@H](CC(C)C)NC(=O)[C@@H](N)Cc1ccccc1)C(=O)N[C@H](C(=O)NCC(=O)N[C@@H](CCSC)C(=O)N[C@@H](CC(C)C)C(=O)N[C@H](C)C(=O)N[C@@H](CCCCN)C(=O)N[C@@H](CC(C)C)C(=O)N[C@@H](Cc1ccccc1)C(=O)NCCCC[C@H](NC(=O)[C@H](Cc1ccccc1)NC(=O)[C@H](CC(C)C)NC(=O)[C@H](CCCCN)NC(=O)[C@@H](C)NC(=O)[C@H](CC(C)C)NC(=O)[C@H](CCSC)NC(=O)CNC(=O)[C@@H](NC(=O)[C@@H](NC(=O)CNC(=O)[C@H](CO)NC(=O)[C@H](CC(C)C)NC(=O)[C@@H](N)Cc1ccccc1)[C@@H](C)CC)C(C)C)C(N)=O)C(C)C [[G10a]2-SHa] (HELM PEPTIDE1{F.L.S.G.I.V.G.M.L.[dA].K.L.F.K.[am]}|PEPTIDE2{F.L.S.G.I.V.G.M.L.[dA].K.L.F}$PEPTIDE1,PEPTIDE2,14:R3-13:R2$$$V2.0)	4.72 ± 0.36	3.79 ± 1.61	4.42 ± 0.06	14.3 ± 1.37	6.31 ± 0.66	8.71 ± 0.35	5.69 ± 1.46	high hemolytic activity	complete hemolysis	11.55 ± 0.38	considerable stability up to 60 °C	significantly stable at pH values up to 10 and unstable at high pH values of 12 and 14	6.85 ± 3.66	22.3 ± 0.4					
I: H-FLSGIVGML[dA]KLFKK-NH2 / II: H-FLSGIVGML[dA]KLF / III: H-FLSGIVGML[dA]KLF (amide I:14-III:C, I:15-II:C) [[G10a]3-SHa]	2.24 ± 0.05	3.74 ± 3.46	2.31 ± 0.08	5.49 ± 0.37	1.84 ± 0.17	6.94 ± 0.27	3.77 ± 0.12	high hemolytic activity	complete hemolysis	10.46 ± 0.36	considerable stability up to 60 °C	significantly stable at pH values up to 10 and unstable at high pH values of 12 and 14	3.76 ± 1.87	13.9 ± 0.42	25	3.12	25	6.25	Pdi Values (polydispersity index) ([17]; DLS): 0.462; average hydrodynamic diameter ([17]; DLS): about 46.13 nm; Z-Average ([17]; DLS, room temperature): 46.13 nm·days; Zeta Potential ([17]; zetasizer): −71.2 mV; times more active than [G10a]-SHa at inhibiting multiplying cancer cells ([11]; from mean IC50 on human cancer cells): 4.8 times
FLSGIVGMLGKLF-NH2 [Temporin SHa, H-Phe^1-Leu^2-Ser^3-Gly^4-Ile^5-Val^6-Gly^7-Met^8-Leu^9-Gly^10-Lys^11-Leu^12-Phe^13-NH2]															3.12	6.25	50	3.12	IC50 ([1]; Skin Cancer (MNT-1), read-out: IC50 (cell proliferation)): > 100 µM; IC50 ([2]; Lung Cancer (A549), read-out: IC50 (cell proliferation)): > 100 µM; IC50 ([3]; Ovarian Cancer (A2780), read-out: IC50 (cell proliferation)): > 100 µM; IC50 ([4]; Liver Cancer (HepG-2), read-out: IC50 (cell proliferation)): > 100 µM; IC50 ([5]; Prostate Cancer (PC-3), read-out: IC50 (cell proliferation)): > 100 µM; IC50 ([6]; Pancreatic Cancer (MiaPaCa), read-out: IC50 (cell proliferation)): > 100 µM; IC50 ([7]; Breast Cancer (MCF-7), read-out: IC50 (cell proliferation)): 20.4 ± 5.64 µM; minimal inhibitory concentration (MIC) [18]: 50 µM; minimal inhibitory concentration (MIC) [19]: 12.5 µM; minimal inhibitory concentration (MIC) [20]: 1.56 µM; minimal inhibitory concentration (MIC) [21]: 50 µM; minimal inhibitory concentration (MIC) [22]: 50 µM; minimal inhibitory concentration (MIC) [23]: 6.25 µM; estimated HC50 (concentration causing 50% of hemolysis) ([8]; human erythrocytes, 37 °C): 266.20 ± 41.27 µM; hemolysis at 1 h, 100 µM [24]: 24.5 ± 1.88%; IC50 ([11]; all cells except breast cancer MCF-7, up to 100 µM, read-out: IC50 on the human cells tested other than MCF-7): > 100 µM; IC50 ([12]; Human Normal Fibroblast (IMR-90), read-out: IC50 (cell proliferation)): > 100 µM
